Assay results taken from paper PMC11546061, “Development and Evaluation of ABI-171, a New Fluoro-Catechin Derivative, for the Treatment of Idiopathic Pulmonary Fibrosis” (International Journal of Molecular Sciences, 2024).
Read-outs that look alike come from different tables or passages of the source.

Columns and labels:
DYRK1A = DYRK1A (Homo sapiens, UniProt Q13627); test: DYRK1A kinase inhibition; type: biochemical
PIM3 = PIM3 (Homo sapiens, UniProt Q86V86); test: PIM3 kinase inhibition; type: biochemical
Text: Table 1 Best DYRK1A inhibitors. | column: PIM3 IC50

[1] = parameters: method as in PMID 36986543; settings: mouse, plasma, cited from earlier work
PIM1 = PIM1 (Homo sapiens, UniProt P11309); test: PIM1 kinase inhibition; type: biochemical
Sequence of PIM1 (P11309 whole entry, species assumed): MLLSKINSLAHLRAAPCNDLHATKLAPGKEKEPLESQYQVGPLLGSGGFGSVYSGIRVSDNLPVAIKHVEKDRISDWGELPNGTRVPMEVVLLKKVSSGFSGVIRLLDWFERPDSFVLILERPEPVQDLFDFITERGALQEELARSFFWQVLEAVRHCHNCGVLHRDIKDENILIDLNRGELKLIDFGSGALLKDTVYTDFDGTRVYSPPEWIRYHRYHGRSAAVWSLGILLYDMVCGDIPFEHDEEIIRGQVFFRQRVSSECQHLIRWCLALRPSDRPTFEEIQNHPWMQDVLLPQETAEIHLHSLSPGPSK

PIM2 = PIM2 (Homo sapiens, UniProt Q9P1W9); test: PIM2 kinase inhibition; type: biochemical
Sequence of PIM2 (Q9P1W9 whole entry, species assumed): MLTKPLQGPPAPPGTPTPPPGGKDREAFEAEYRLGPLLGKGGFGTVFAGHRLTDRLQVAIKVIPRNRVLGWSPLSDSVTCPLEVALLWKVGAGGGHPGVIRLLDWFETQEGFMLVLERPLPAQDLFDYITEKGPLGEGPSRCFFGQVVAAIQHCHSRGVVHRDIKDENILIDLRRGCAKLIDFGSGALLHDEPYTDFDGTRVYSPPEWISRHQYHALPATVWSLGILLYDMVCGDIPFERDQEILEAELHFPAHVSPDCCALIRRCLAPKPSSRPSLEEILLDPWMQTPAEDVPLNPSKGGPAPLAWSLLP
Text: Table 1 Best DYRK1A inhibitors. | column: PIM2 IC50

[2] = test system: bleomycin-induced pulmonary fibrosis; test: Preventive bleomycin-induced IPF model (treatment from Day 0); type: in vivo, C57BL/6 mice; settings: for body weight: Day 14 to 21 vs BLM model group, ABI compounds 60 mg/kg QD intranasal, pirfenidone 100 mg/kg oral thrice daily; for alveolitis and PF degrees (H&E and Masson staining): relative to bleomycin group; for hydroxyproline content in lung tissues: 21 days
Text: Consequently, we opted for intranasal delivery in our first IPF animal model, employing a validated BLM mouse model. […] The experiment considered the day of bleomycin injection as Day 0. […] The experiment was completed after 21 days.
In the preventive model, male C57BL/6 mice, aged 8–10 weeks, were used to simulate the early intervention scenario where treatment begins immediately following the induction of lung injury. […] On day 0, pulmonary fibrosis was induced by administering a single intratracheal infusion of bleomycin at a dose of 3 U/kg body weight, dissolved in 50 μL of sterile saline. Treatment with the test compounds commenced immediately after bleomycin administration and continued daily for 21 days. Body weight, survival rate, and clinical signs were monitored throughout the study.
At the end of the study period, the mice were sacrificed, and their lungs were harvested for histological and biochemical analyses. Lung tissues were fixed in 10% formalin and embedded in paraffin for histological examination using hematoxylin and eosin (H&E) staining to assess tissue morphology, and Masson’s trichrome staining to evaluate collagen deposition. Additionally, lung hydroxyproline content, a marker of collagen accumulation, was quantified using a colorimetric assay. Inflammatory cell infiltration was assessed by counting lymphocytes and neutrophils in bronchoalveolar lavage fluid (BALF).

[3] = Pharmacokinetics and lung-tissue distribution after single IV, IN or PO dose; type: in vivo, C57BL/6 mice
Procedure: Plasma concentrations were measured using LC-MS/MS, and PK parameters were calculated with WinNonlin. […] The formulation is based on the solubilizer and penetration enhancer (2-hydroxypropyl)-β-cyclodextrin (HP-β-CD), PEG-400, and water.
They were given a commercial mice chow and water ad libitum. The experiments started after acclimation for at least 1 week. Dosing solutions were made fresh. Fasted mice were administered the test drug by oral (PO), intranasal (IN), and intravenous (IV) routes. […] […] […] Blood was collected into K2EDTA microtubes, kept on ice all the time and centrifuged within 30 min of collection. Blood samples in EDTA vacuum tubes were centrifuged at 4 °C at 15,000× g for 4 min; ~250 µL of plasma was collected into polyethylene tubes containing 50 µL of the ascorbic acid (AA)/TCEP stabilizing solution (20 mM AA and 13 mM TCEP in 50 mM K2HPO4 buffer. The pH of the solution was adjusted to 6.5 using 2 M NaOH). After collection, the plasma samples were immediately snap-frozen in isopropanol/carbon-dioxide dry ice and stored at −80 °C until analysis.
Test catechin was extracted from the above-collected plasma through 3 successive additions of 350 µL of acetonitrile. The plasma and solvent mixture were vortex-mixed for 2 min then snap-frozen with isopropanol/carbon-dioxide dry ice and the extraction solvent was removed. The solvent fractions were pooled into a polyethylene tube kept on ice. The combined fractions were evaporated under a gentle stream of nitrogen at ambient temperature. The residue obtained after evaporation was reconstituted in 200 µL of 75 mM citric acid/25 mM ammonium acetate: acetonitrile (75:25, by vol), vortexed vigorously for 5 min, and 20 µL of the resulting solution was injected into the HPLC column. Lung tissue was collected and treated immediately to avoid product degradation. Within 5 min of extraction, about ~0.4 g of the tissue was homogenized with 1 mL of ice-cold 0.4 M sodium phosphate buffer containing 6 mg of ascorbic acid and 0.5 mg of Na2EDTA (final pH of 6.5). After centrifugation at 4 °C at 15,000× g for 4 min, the supernatant was collected into polyethylene tubes containing 50 µL of the AA/TCEP stabilizing solution (20 mM AA and 13 mM TCEP in 50 mM K2HPO4 buffer. The pH of the solution was adjusted to 6.5 using 2 M NaOH), immediately snap-frozen in isopropanol/carbon-dioxide dry ice and stored at −80 °C until analysis. Extraction was performed as described above for plasma.

[4] = test system: bleomycin-induced pulmonary fibrosis; test: Therapeutic bleomycin-induced IPF model (treatment from Day 7); type: in vivo, C57BL/6 mice
Text: In this study, drug treatment commenced 7 days post-induction of pulmonary fibrosis using BLM, employing a therapeutic model.
Pulmonary fibrosis was induced by a single intratracheal infusion of bleomycin at a dose of 3 U/kg body weight. Seven days post-bleomycin administration, when fibrosis was established, treatment with the test compounds commenced and continued daily for an additional 21 days.
Throughout the treatment period, body weight, survival rate, and clinical signs were monitored. At the study’s conclusion, mice were sacrificed, and their lungs were harvested for comprehensive histological and biochemical analyses. Lung tissues were processed for H&E and Masson’s trichrome staining to evaluate fibrosis and collagen deposition. Lung hydroxyproline content was measured to quantify collagen accumulation. Inflammatory cell infiltration in BALF was assessed by counting lymphocytes and neutrophils.

[5] = vs BLM group, 60 mg/kg QD intranasal
[6] = C57BL/6, inhaled or intranasal, mouse, IN (60 mg/kg), lung
[7] = intranasal 50 mg/kg QD, from day 7 post-BLM
[8] = oral 100 mg/kg QD, from day 7 post-BLM
[9] = tissues from Group 4, vs BLM group
[10] = vs BLM group, 60 mg/kg QD intranasal, p < 0.05
[11] = C57BL/6, mouse, IV (10 mg/kg), plasma
[12] = oral 100 mg/kg once daily, from day 7 post-BLM

O=C(O[C@@H]1Cc2c(O)cc(O)cc2O[C@H]1c1cc(O)c(O)c(O)c1)c1c(F)c(O)c(O)c(O)c1F [ABI-154]
IC50 (DYRK1A; read-out: DYRK1A IC50): 28 nM | IC50 (PIM3): 6 µM | Tlast ([1]; PO (100 mg/kg)): 24 h | IC50 (PIM1): 722 nM | IC50 (PIM2): 1080 nM | body weight [2]: no body weight gain effect | alveolitis and PF degrees (H&E and Masson staining) ([2]; 60 mg/kg QD intranasal): decrease in the alveolitis and PF degrees | hydroxyproline content in lung tissues [2, 5]: significantly decreased

COc1cc(C(=O)O[C@@H]2Cc3c(O)cc(O)cc3O[C@H]2c2cc(O)c(O)c(O)c2)c(F)c(O)c1O [ABI-171]
IC50 (DYRK1A; read-out: DYRK1A IC50): 73 nM | IC50 (PIM3): 0.813 µM | AUC(0-inf) [3, 6]: 23200 ng·h/mL | AUC(0-t) [3, 6]: 23100 ng·h/mL | Tmax [3, 6]: 4 h | half-life [3, 6]: 236 min | Cmax ([3]; C57BL/6, inhaled or intranasal, mouse, IN (60 mg/kg), lung, read-out: Cmax): 8740 ng/g | AUC(0-t) ([3]; C57BL/6, mouse, PO (100 mg/kg), lung): 214 ng·h/mL | Cmax ([3]; C57BL/6, mouse, PO (100 mg/kg), lung, read-out: Cmax): 231 ng/g | Cmax ([3]; IN route (60 mg/kg), total not unbound drug, read-out: theoretical cellular concentration in the lungs at Cmax): ~17.8 µM | Tlast ([3]; mouse, IN (60 mg/kg), lung): 24 h | Tlast ([3]; mouse, PO (100 mg/kg), lung): 24 h | Tlast ([1]; IN (60 mg/kg)): 24 h | CL(IV) ([1]; IV (5 mg/kg)): 60 mL/min/kg | Vz(IV) ([1]; IV (5 mg/kg)): 17 L/kg | CL/F (PO) ([1]; PO (100 mg/kg)): 101 mL/min/kg | F (absolute oral bioavailability, PO/IV) ([1]; PO (100 mg/kg)): 16% | Tlast ([1]; PO (100 mg/kg)): 24 h | Vz/F (PO) ([1]; PO (100 mg/kg)): 15.6 L/kg | BLM-induced lung collagen level ([4]; day 21 of treatment): significant reductions | BLM-induced lung fibronectin level ([4]; day 21 of treatment): significant reductions | body weight [4, 7]: good recovery in body weight | survival [4, 7]: complete survival | BLM-induced lung injuries, Masson's and H&E scores ([4]; intranasal 10 and 50 mg/kg, oral 100 mg/kg QD): improvements | body weight [4, 8]: good recovery in body weight | survival [4, 8]: complete survival | E-cadherin levels in lung ([4]; oral treatment, tissues from Group 4): significantly elevated | PIM1 level in lung [4, 9]: significantly reduced | Smad3 (p-Smad3) levels in lung [4, 9]: significantly reduces | Snail expression in lung [4, 9]: reduce Snail expression | αSMA level in lung [4, 9]: downregulating | IC50 (PIM1): 87 nM | IC50 (PIM2): 255 nM | body weight [2]: significant increase in body weight | alveolitis and PF degrees (H&E and Masson staining) ([2]; 60 mg/kg QD intranasal): decrease in the alveolitis and PF degrees | hydroxyproline content in lung tissues [2, 5]: significantly decreased | lymphocytes (BALF) [2, 10]: significantly reduced | neutrophils (BALF) [2, 10]: significantly reduced

O=C(O[C@@H]1Cc2c(O)cc(O)cc2O[C@@H]1c1cc(O)c(O)c(O)c1)c1cc(O)c(O)c(O)c1 [EGCG, Epigallocatechin gallate, reference compound]
IC50 (DYRK1A): 235 nM | bioavailability ([3]; C57BL/6, mouse, lung, po, 100 mg/kg, read-out: F (absolute oral bioavailability, PO/IV)): 2% | Vd/F ([3]; C57BL/6, mouse, lung, po, 100 mg/kg, read-out: Vz/F (PO)): 2680 L/kg | AUC(0-inf) [3, 11]: 1830 ng·h/mL | AUC(0-t) [3, 11]: 1800 ng·h/mL | half-life [3, 11]: 342 min | Cmax ([3]; C57BL/6, mouse, IV (10 mg/kg), plasma, read-out: Cmax): 4420 ng/mL | Vd ([3]; C57BL/6, mouse, IV (10 mg/kg), plasma, read-out: Vz(IV)): 45.2 L/kg | T1/2 ([3]; EGCG column, PO (100 mg/kg), head prints Lung): 5 h | activity in various assessments [4, 12]: limited to moderate activity | mortality [4, 12]: 50% | IC50 (PIM1): 1360 nM

Cc1ccc(=O)n(-c2ccccc2)c1 [pirfenidone, Pirfenidone, reference compound]
body weight [2]: significant increase in body weight
